The source made the active and inactive calls.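 The calls were made as follows: active = compounds giving half or more protection of infected cells from virus-caused growth loss, again on retest; inactive = the rest.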
Test system: CEM cells HIV-1 protection, formazan growth assay
Assay: NCI AIDS Antiviral Assay
Conditions: for IC50: measured here: growth of uninfected CEM cells
Procedure, shortened: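 Protection of CEM cells against HIV-1 measured as cell growth via soluble formazan read-out, with five concentrations tested on both infected and uninfected cells; failure to protect may reflect toxicity.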

Row | Structure (SMILES) | EC50 [µM] | IC50 [µM] | outcome
1 | COc1cc2[nH]c(=O)[nH]c2c2c(C)c[nH]c12 | > 200 | > 200 | 
2 | COc1ccc([N-]/C(=N\n2c(=O)c(C)nn(C)c2=S)N(c2ccc(OC)cc2)c2nn3c(=O)c(C)n[n+](C)c3s2)cc1 |  |  | inactive
3 | CCCc1ccc(OC2OC(COC(C)=O)C(OC(C)=O)C(OC(C)=O)C2OC(C)=O)cc1 (configuration not stated) | > 95.5 | > 95.5 | 
4 | N=C(N)SCc1ccc(Cl)cc1Cl (tested in a mixture with another compound) | > 100 | 60.3 | 
5 | CCCCCCCCCCCc1c2oc3ccc([N+](=O)[O-])cc3nc-2cc(Nc2cc([N+](=O)[O-])ccc2O)c1=O | > 3.31 | > 3.31 | 
6 | CCOc1ccc(/C=C2/NC(=S)N(CN3CCCCC3)C2=O)cc1 | > 200 | 72.4 | 
7 | CC(=C(C(N)=O)C(N)=O)C1C=C(c2cccs2)CC(c2ccc(Cl)cc2)=C1O (configuration not stated) | > 200 | > 100 | 
8 | COc1ccc(C(=C(C#N)C#N)c2ccc(OC)cc2)cc1 |  |  | inactive
9 | CCCCCCCCCCCCCCCCOC(=O)c1cc(O)cc(C(=O)OCCCCCCCCCCCCCCCC)c1 |  |  | inactive
10 | CC(=O)Nc1nc(C)c(CCC#N)c(SC(=N)N)n1 | > 200 | > 200 | 
11 | NC1=NS(=O)(=O)Nc2nc(-c3ccccc3)c(-c3ccccc3)nc21 | > 355 | 182 | 
12 | CCCCN(CCCC)CC(C(=O)Nc1ccc([N+](=O)[O-])cc1[N+](=O)[O-])/C(C)=N\NC(=O)C[N+](C)(C)C (configuration not stated) | > 46.8 | > 46.8 | 
13 | CCOC(=O)C(N=C(c1ccccc1)c1ccccc1)N(C(=O)OC(C)(C)C)C(=O)OC(C)(C)C (configuration not stated) |  |  | inactive
14 | N#Cc1c(Cl)c2ccccc2n2c1nc1ccccc12 | > 151 | 8.32 | 
15 | CC(C)N(C(C)C)[PH+]1O[PH+](N(C(C)C)C(C)C)O[PH+](N(C(C)C)C(C)C)O[PH+](N(C(C)C)C(C)C)O[PH+](N(C(C)C)C(C)C)O1.[C-]#[O+].[C-]#[O+].[C-]#[O+].[C-]#[O+].[C-]#[O+].[C-]#[O+].[C-]#[O+].[Cr].[Cr] (configuration not stated) | > 25.1 | > 25.1 | 
16 | CC1(C)CNC[C@@]2(C)OCCO[C@@]3(C)CNCC(C)(C)[N-]C(=O)[C@@](C)(CNCC(C)(C)[N-]C3=O)OCCO[C@](C)(CNCC(C)(C)[N-]C2=O)C(=O)[N-]1.[Cu+2].[Cu+2] | > 200 | > 200 | 
17 | BrC(Br)([P+](c1ccccc1)(c1ccccc1)c1ccccc1)[P+](c1ccccc1)(c1ccccc1)c1ccccc1 |  |  | inactive
18 | CCN(CC)CC(=O)Nc1c(C)ccc(N)c1C | > 200 | > 200 | 
19 | CC(=O)c1ccccc1NS(=O)(=O)c1ccc2nc(C)n(NS(=O)(=O)c3ccccc3C(C)=O)c(=O)c2c1 | > 200 | > 200 | 
20 | CCOC(=O)c1c(N2CCCC2)[nH]c(=O)c(C(c2ccco2)c2c(O)c(C(=O)OCC)c(N3CCCC3)[nH]c2=O)c1O | > 200 | 117 | 
21 | C=C1CC(COc2cc(=O)oc3ccccc23)(c2ccccc2)OC1=O (configuration not stated) | > 200 | 0.38 | 

Row | Structure (SMILES) | EC50 [µM] | IC50 [µM] | outcome
22 | COC(=O)c1nn(-c2ccccc2)c(=O)cc1N=[N+]=[N-] | > 200 | 112 | 
23 | CSc1nnc(N(C(C)C)C(C)C)c2nc[nH]c12 | > 200 | > 200 | 
24 | Cc1c(CCCl)c(Cl)n2c(nc3ccccc32)c1C#N | > 33.9 | 0.537 | 
25 | [O-][N+]1=NC(c2ccccc2)=C1c1ccccc1 | > 50.1 | > 50.1 | 
26 | COC(=O)/C(=N/O)C(C(=O)OC)C(=O)C(=O)Nc1c(Cl)cc(C)cc1S(=O)(=O)O (configuration not stated) | > 550 | > 550 | 
27 | O=S1(=O)CCc2ccccc2C(Cl)C1 (configuration not stated) | > 407 | > 407 | 
28 | CC1=NCCc2c1[nH]c1cc(O)ccc21 | > 398 | > 100 | 
29 | O=C(CC(=O)c1ccccc1NC1=Cc2ccccc2C(=O)C1=O)C(=O)NC1=C(Cl)C(=O)c2ccccc2C1=O | > 18.2 | 3.24 | 
30 | O=C(O)c1cccc(S(=O)(=O)c2ccc([N+](=O)[O-])cc2)c1 | > 200 | > 200 | 
31 | N=C(N)SCCc1cn2ccccc2n1 | > 851 | 42.7 | 
32 | COc1ccc(CSCc2cc(OC)c(OC)c(OC)c2)cc1 | > 200 | 25.7 | 
33 | O=C1CSC(c2c[nH]c3ccccc23)N1c1cccc(Cl)c1 (configuration not stated) | > 21.9 | > 21.9 | 
34 | CCN(CC)CC(C(=O)Nc1c(C)cccc1C)/C(C)=N\NC(=S)NN (configuration not stated) | > 35.5 | > 35.5 | 
35 | N#Cc1nc(CSCc2ccccc2)oc1N | > 200 | 117 | 
36 | COc1cccc(/C=N/[N-]C(N)=O)c1[O-].[Co+2].[OH3+] | > 126 | 61.7 | 
37 | Cc1ccc(/C=C/C(=O)C(C)C)cc1 | > 200 | 70.8 | 
38 | CCOC(=O)CSc1cc(C)c2c(N)c(C(=O)OCC)sc2n1 | > 72.4 | > 72.4 | 
39 | O=C(NNC(=O)/C(=C/c1cccc([N+](=O)[O-])c1)NC(=O)c1ccccc1)Nc1ccc(Cl)cc1 | > 38.9 | 24.5 | 
40 | COc1cc(C(c2cc(OC)c(OC)c(OC)c2)N2C(=O)CCC2C(=O)O)cc(OC)c1OC (configuration not stated) | > 200 | > 200 | 
41 | c1ccc2c(c1)NC1=C(CSCC1)c1nncn1-2 | > 200 | > 200 | 
42 | CC(C)(C)C(C)(C)SSC(C)(C)C(C)(C)C | > 200 | > 200 | 

Row | Structure (SMILES) | EC50 [µM] | IC50 [µM] | outcome
43 | O=C(NCCCl)SCCO | > 1350 | > 1350 | 
44 | CC1(C)OCC(CO)(Nc2nc(N3CC3)nc(N3CC3)n2)CO1 | > 200 | 0.741 | 
45 | Cc1ccc(-n2cc(-c3ccc(Cl)cc3)c3c(=N)n(N)cnc32)cc1 | > 100 | 13.5 | 
46 | CN1C(=O)C2CCCC(=O)N2c2cccnc21 (configuration not stated) | > 200 | > 200 | 
47 | COc1cc2c3c(ccc2cc1O)-c1cc(OC)c(OC)cc1C[N+]3(C)C | > 4.47 | > 4.47 | 
48 | CCOc1cccc2sc(N)nc12 |  |  | inactive
49 | CC(C)CCC[C@@H](C)[C@H]1CCC2[C@@H]3CC[C@H]4C[C@@H](CCC=C(c5cc(Cl)c(OCc6ccc(-c7ccc(C(=O)O)cc7)cc6)c(C(=O)O)c5)c5cc(Cl)c(OCc6ccc(-c7ccc(C(=O)O)cc7)cc6)c(C(=O)O)c5)CC[C@]4(C)[C@H]3CC[C@@]21C (some centres not stated) | > 200 | 170 | 
50 | O=C(O)c1cc(OS(=O)(=O)O)c(OS(=O)(=O)O)c(OS(=O)(=O)O)c1 | > 200 | 11.2 | 
51 | CN(C)c1ccc(/C=N\NC(=O)c2ccccc2Nc2ccccc2C(=O)N/N=C/c2ccc(N(C)C)cc2)cc1 | 66.1 | > 200 | 
52 | NC(=O)OCC(COc1ccc(Cl)cc1)OC(=O)c1ccccc1Cl (configuration not stated) | > 93.3 | 70.8 | 
53 | CC(C)(C)c1cc2ccc(C(N)=O)cc2c(=O)[nH]1 | > 537 | 302 | 
54 | Cc1cc(-c2ccccn2)oc(=O)c1NC(=O)c1ccccc1 | > 200 | 30.2 | 
55 | N#CC1CCCCOCCOCCOCCOCCOCCCCCC1=O (configuration not stated) |  |  | inactive
56 | COC(=O)c1cc(C(c2cc(C(=O)OC)c(O)cc2C)C(Cl)Cl)c(C)cc1O | > 91.2 | 6.46 | 
57 | Cc1ccc(NCCN(C)C)c2c(=O)c3cc(O)ccc3oc12 | > 155 | 1.02 | 
58 | CC1(C)CCC[C@@]2(C)C1CC[C@@]1(CO1)[C@@H]2/C=C\C(C=O)CC=O (some centres not stated) |  |  | inactive
59 | N#Cc1c(-c2ccc(Cl)cc2)c2c(n(C3OC(CO)C(O)C(O)C3O)c1=S)CCCC2 (configuration not stated) | > 200 | 69.2 | 
60 | CCCCCCCCCCCCCCCC=C(c1cc(Br)cc(C(=O)O)c1OC)c1cc(Br)cc(C(=O)O)c1OC | > 1070 | 24 | 
61 | CCOC(=O)COc1cccc2occc(=O)c12 |  |  | inactive
62 | CC1C(O)O[C@@H]2O[C@@]3(C)CC[C@H]4[C@H](C)CC[C@@H]1[C@@]24O3 (some centres not stated) | > 200 | > 200 | 
63 | CC(CO)[C@H]1OC(=O)C=C2[C@@]13O[C@@H]3[C@H]1OC(=O)[C@@]3(C)[C@H]4O[C@H]4C[C@@]2(C)[C@@H]13 (some centres not stated) | > 2 | 0.776 | 

Row | Structure (SMILES) | EC50 [µM] | IC50 [µM] | outcome
64 | CC(C)c1cccc(C(C)C)c1NC(=O)CCC(=O)NN | > 324 | > 324 | 
65 | COc1cc(NCCN(CC(C)C)C(C)C(C)C)c2ncccc2c1 (configuration not stated) | > 200 | 37.2 | 
66 | CCCNC(=O)c1sc(SC)nc1NC(=O)c1ccc(OC)cc1 | > 200 | > 200 | 
67 | CSC1C=C(C(C)C)CCC1(C)SC (configuration not stated) | > 200 | 39.8 | 
68 | O=C1c2ccc(O)cc2OC(c2ccc(O)c(O)c2)C1O (configuration not stated) | > 200 | 93.3 | 
69 | O=[N+]([O-])c1ccc(Cl)cc1-n1nc(-c2ccccc2)cc1-c1ccccc1 | > 200 | > 200 | 
70 | CSC(SC)=C(C(=O)c1ccc(Cl)cc1)n1c(=O)sc2cc(Br)ccc21 | > 200 | 12.3 | 
71 | Cc1c2ccnc(C#N)c2c(C)c2c1[nH]c1ccccc12 |  |  | inactive
72 | O=C1C(O)=C(c2ccccc2C(=O)O)C(=O)C(O)=C1c1ccccc1C(=O)O | > 110 | > 110 | 
73 | CCCc1nc(NC#N)nc(C(=O)Nc2ccccc2)c1CC | > 407 | > 407 | 
74 | CCCCCCCCOC(=O)CC(C(=O)OCCCCCCCC)S(=O)(=O)O (configuration not stated) | > 200 | 117 | 
75 | Cc1ccc(CC2(C(=O)O)Cc3ccc(C)cc3C2)cc1 (configuration not stated) | > 200 | 57.5 | 
76 | CC(C)[Si](OC12CCC(CC1O)CC2C(=O)O)(C(C)C)C(C)C (configuration not stated) | > 200 | 22.4 | 
77 | COc1cccc2c1C(=O)c1c(O)c3c(c(O)c1C2=O)C[C@@](O)(C(=O)CO)C[C@@H]3OC1CC(N2CCOCC2C#N)C(O)C(C)O1 (some centres not stated) | > 15.5 | 0.00501 | 
78 | CN(C)CC/C=C1\c2ccccc2CSc2ccccc21 | > 200 | 32.4 | 
79 | CC(C)C1=C(Cc2ccccc2)C(=O)O/C1=C\c1cc(Cl)c(O)c(Cl)c1 | > 200 | 32.4 | 
80 | [Cu+2].[Cu+2].[NH-]c1c(N=Nc2ccc(/C=C/c3ccc(N=Nc4cc(S(=O)(=O)[O-])c5cccc(S(=O)(=O)[O-])c5c4[NH-])cc3S(=O)(=O)[O-])c(S(=O)(=O)[O-])c2)cc(S(=O)(=O)[O-])c2cccc(S(=O)(=O)[O-])c12.[Na+] | 10.5 | 24 | 
81 | c1ccc2c(c1)ccc1c2nc2c3ccccc3[nH]n12 | 0.245 | 10.7 | 

Reference: PubChem BioAssay AID179 (DTP/NCI, 2004)
